Test results as given in ChEMBL document CHEMBL4823282, “Novel Broad-Spectrum Antimicrobial Peptide Derived from Anoplin and Its Activity on Bacterial Pneumonia in Mice” (J Med Chem, 2021).
Active and inactive are the calls of the source. The calls are words filed in the database; no cut-off is given here. Where a SMILES comes first, the peptide text is derived from it. Bridges are numbered along the chain shown (N, C = ends). [ ]: non-standard residue; d: D form. The star is where a group is joined. X1 = CC[C@H](C)CCCCC(=O)*; Dab = NCC[C@H](N)C(=O)O

What was measured:
Klebsiella pneumoniae [1] = assay: Antibacterial activity against Klebsiella pneumoniae ATCC 700603 incubated with 0.2 to 0.02 ug/ml trypsin for 6 hrs followed by bacterial addition and measured after 18 hrs by CLSI based broth dilution method; assay type: functional, organism-based; settings: dose 0.2-0.02 µg/ml, time 23.0 hrs
Staphylococcus aureus [2] = assay: Bactericidal activity against Staphylococcus aureus ATCC 25923 at 2MIC measured within 3 hrs by time-kill assay relative to control; assay type: functional
[3] = Induction of inflammation in BALB/C mouse at 82 mg/kg, ip administered as single dose by hematoxylin and eosin staining based assay; assay type: organism-based; settings: in vivo
Klebsiella pneumoniae [4] = assay: Antibacterial activity against Klebsiella pneumoniae ATCC 700603 infected in BALB/C mouse assessed as reduction in inflammatory response at 5 to 10 mg/kg, ip by hematoxylin and eosin staining based assay; assay type: functional, organism-based; settings: dose 5-10 mg/kg
HK-2 = assay: Cytotoxicity against human HK2 cells incubated for 12 hrs by MTT assay; assay type: cell-based; settings: HK-2, 12 h
Klebsiella pneumoniae [5] = assay: Antibacterial activity against Klebsiella pneumoniae ATCC 700603 incubated with 0.2 to 0.02 ug/ml chymotrypsin for 6 hrs followed by bacterial addition and measured after 18 hrs by CLSI based broth dilution method; assay type: functional, organism-based; settings: dose 0.2-0.02 µg/ml, time 23.0 hrs
Staphylococcus aureus [6] = assay: Disruption of membrane integrity in Staphylococcus aureus ATCC 25923 assessed as content leakage at 1 times MIC incubated for 0.5 to 2 hrs by scanning electron microscopy; assay type: functional, organism-based; settings: time 0.5-2 hrs
[7] = Toxicity in BALB/C mouse assessed as induction of inflammatory reaction at 19 mg/kg, ip administered as single dose by hematoxylin and eosin staining based assay; assay type: organism-based; settings: in vivo
Lipopolysaccharide (LPS) = assay: Binding affinity to LPS (unknown origin) assessed as bacterial killing at 2 times MIC preincubated for 1 hr followed by Escherichia coli ATCC 25922 addition and measured after 2 hrs by absorbance method relative to polymyxin B; settings: time 3.0 hrs
Cell membrane = assay: Disruption of membrane integrity in Klebsiella pneumoniae ATCC 700603 assessed as membrane shrinking at 1 times MIC measured within 0.5 to 2 hrs by scanning electron microscopy; assay type: subcellular; settings: Klebsiella pneumoniae 700603, time 0.5-2 hrs
[8] = Induction of glomerulus hemorrhage in BALB/C mouse at 82 mg/kg, ip administered as single dose by hematoxylin and eosin staining based assay; assay type: organism-based; settings: in vivo
Klebsiella pneumoniae [9] = assay: Synergistic antibacterial activity against Klebsiella pneumoniae ATCC 700603 at 2 times MIC incubated for 18 to 24 hrs in presence of 2 times MIC of polymyxin B by broth microdilution assay based checkerboard assay; assay type: functional; settings: time 18-24 hrs
Escherichia coli = assay: Synergistic antibacterial activity against Escherichia coli ATCC 25922 at 2 times MIC incubated for 18 to 24 hrs in presence of 2 times MIC of polymyxin B by broth microdilution assay based checkerboard assay; assay type: functional; settings: time 18-24 hrs
Klebsiella pneumoniae [10] = assay: Antibacterial activity against Klebsiella pneumoniae ATCC 700603 infected in BALB/C mouse assessed as reduction in inflammatory cell infiltration in […] at 5 mg/kg, ip by hematoxylin and eosin staining based assay; assay type: functional, organism-based
Klebsiella pneumoniae [11] = assay: Antibacterial activity against Klebsiella pneumoniae ATCC 700603 infected in BALB/C mouse assessed as reduction in bacterial load at 5 mg/kg, ip by hematoxylin and eosin staining based assay; assay type: functional, organism-based
Klebsiella pneumoniae [12] = assay: Antibacterial activity against Klebsiella pneumoniae ATCC 700603 infected in BALB/C mouse assessed as reduction in alveolar shrinkage at 5 mg/kg, ip by hematoxylin and eosin staining based assay; assay type: functional, organism-based
Klebsiella pneumoniae [13] = assay: Antibacterial activity against Klebsiella pneumoniae ATCC 700603 incubated with 2000 ug/ml chymotrypsin for 6 hrs followed by bacterial addition and measured after 18 hrs by CLSI based broth dilution method; assay type: functional, organism-based; settings: dose 2000.0 µg/ml, time 23.0 hrs
Klebsiella pneumoniae [14] = assay: Antibacterial activity against Klebsiella pneumoniae ATCC 700603 incubated with 2000 ug/ml trypsin for 6 hrs followed by bacterial addition and measured after 18 hrs by CLSI based broth dilution method; assay type: functional, organism-based; settings: dose 2000.0 µg/ml, time 23.0 hrs

SMILES	Activity (Klebsiella pneumoniae [1])	Activity (Staphylococcus aureus [2]) [%]	Activity [3]	Activity (Klebsiella pneumoniae [4])	IC50 (HK-2) [µM]	Activity (Klebsiella pneumoniae [5])	Activity (Staphylococcus aureus [6])	Activity [7]	fold change (FC) (Lipopolysaccharide (LPS))	Activity (Cell membrane)	Activity [8]	FIC (Klebsiella pneumoniae [9])	FIC (Escherichia coli)	Activity (Klebsiella pneumoniae [10])	Activity (Klebsiella pneumoniae [11])	Activity (Klebsiella pneumoniae [12])	Activity (Klebsiella pneumoniae [13])	Activity (Klebsiella pneumoniae [14])
NCCCC[C@H](NC(=O)[C@H](CCCCN)NC(=O)[C@H](Cc1c[nH]c2ccccc12)NC(=O)[C@H](CCCCN)NC(=O)[C@H](CCCCN)NC(=O)[C@H](Cc1c[nH]c2ccccc12)NC(=O)[C@H](Cc1c[nH]c2ccccc12)NC(=O)[C@@H](N)CCCCN)C(=O)N[C@@H](Cc1c[nH]c2ccccc12)C(=O)N[C@@H](Cc1c[nH]c2ccccc12)C(N)=O (H-KWWKKWKKWW-NH2)	Active	100	Toxic	Active	63.5	Active	Active	Toxic	2	Active	Toxic	0.3125	0.3125	–	–	–	–	–
CC[C@H](C)CCCCC(=O)N[C@@H](CCN)C(=O)N[C@H](C(=O)N[C@@H](CCN)C(=O)N[C@H]1CCNC(=O)[C@H]([C@@H](C)O)NC(=O)[C@H](CCN)NC(=O)[C@H](CCN)NC(=O)[C@H](CC(C)C)NC(=O)[C@@H](Cc2ccccc2)NC(=O)[C@H](CCN)NC1=O)[C@@H](C)O (X1-[Dab]T[Dab][Dab][Dab][dF]L[Dab][Dab]T; lactam 4-C)	–	–	–	–	–	–	–	–	–	–	–	–	–	inactive	inactive	inactive	Active	Active
